The experiment deals with T1, HIV integrase (Human immunodeficiency virus type 1 group M subtype B, UniProt P12497, F1332H).
T1 construct: HIV integrase full length gene; made in house; host or cells: Escherichia coli BL21(DE3), plasmid pET21a-INH
Description: Determination of enzyme (HIV integrase) inhibitory activity. It is filed as biochemical. To be noted: recombinant HIV integrase (F185H), strand transfer ELISA, absorbance at 450 nm. In outline:
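Full-length integrase with F185H, expressed in E. coli and purified, was reacted for 60 min at 37 °C with compound and biotinylated donor DNA bound to streptavidin plates. Target DNA was added for 10 min, then anti-digoxigenin-peroxidase detection at A450; IC50 from % inhibition versus enzyme-free blank.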

The structures appear in SMILES notation. Where a name gives a salt, the structure may show the parent alone.

`CC(C)(C)C(=O)c1cn2c(CO)cn(Cc3ccc(F)c(Cl)c3)c(=O)c2c(O)c1=O` [Example 241, 2-(3-chloro-4-fluorobenzyl)-7-(2,2-dimethylpropionyl)-9-hydroxy-4-hydroxymethyl-2H-pyrido[1,2-a]pyrazine-1,8-dione hydrochloride]: the IC50 was < 10 nM.

Take `Nc1cn2ccn(Cc3cccc(Cl)c3)c(=O)c2c(O)c1=O` [Example 161, 7-amino-2-(3-chlorobenzyl)-9-hydroxy-2H-pyrido[1,2-a]pyrazine-1,8-dione hydrochloride]: the half-inhibitory concentration (IC50) was 10 to 100 nM.

As for `O=c1c(-c2ccc(O)cc2)cn2ccn(Cc3cccc(Cl)c3)c(=O)c2c1O` [Example 142, 2-(3-chlorobenzyl)-9-hydroxy-7-(4-hydroxyphenyl)-2H-pyrido[1,2-a]pyrazine-1,8-dione], the IC50 lay in the range of 10 to 100 nM.

Turning to `O=C1c2c(O)c(=O)ccn2CCN1Cc1ccc(Cl)cc1` [Example 45, 2-(4-chlorobenzyl)-9-hydroxy-3,4-dihydro-2H-pyrido[1,2-a]pyrazine-1,8-dione], the half-maximal inhibitory concentration (IC50) lay within 10 to 100 nM.

With `Cn1cccc1C(=O)Nc1cn2ccn(Cc3cccc(Cl)c3)c(=O)c2c(O)c1=O` [Example 296, N-[2-(3-chlorobenzyl)-9-hydroxy-1,8-dioxo-1,8-dihydro-2H-pyrido[1,2-a]pyrazin-7-yl]-1-methyl-1H-pyrrole-2-carboxamide], the IC50 was < 10 nM.

For `NC(=O)c1cn2ccn(Cc3cccc(Cl)c3)c(=O)c2c(O)c1=O` [Example 167, 2-(3-chlorobenzyl)-9-hydroxy-1,8-dioxo-1,8-dihydro-2H-pyrido[1,2-a]pyrazine-7-carboxamide], the concentration for half-maximal inhibition (IC50) lay within 10 to 100 nM.

Consider `COc1ccnc(CNC(=O)c2cn3c(c(O)c2=O)C(=O)N(Cc2ccc(F)cc2)CC3)n1` [Example 426, N-(4-methoxypyrimidin-2-ylmethyl)-2-(4-fluorobenzyl)-9-hydroxy-1,8-dioxo-1,3,4,8-tetrahydro-2H-pyrido[1,2-a]pyrazine-7-carboxamide hydrochloride], for which the half-inhibitory concentration (IC50) is 10 to 100 nM.

As to `N#Cc1cn(Cc2cccc(Cl)c2)c(=O)c2c(O)c(=O)ccn12` [Example 107, 2-(3-chlorobenzyl)-9-hydroxy-1,8-dioxo-1,8-dihydro-2H-pyrido[1,2-a]pyrazine-4-carbonitrile], the half-inhibitory concentration (IC50) lay in the range of 10 to 100 nM.

On to `CC(C)(C)c1ccc(CNC(=O)c2cn3c(c(O)c2=O)C(=O)N(Cc2cccc(Cl)c2)CC3)cc1` [Example 273, N-(4-tert-butylbenzyl)-2-(3-chlorobenzyl)-9-hydroxy-1,8-dioxo-1,3,4,8-tetrahydro-2H-pyrido [1,2-a] pyrazine-7-carboxamide], for which the 50% inhibitory concentration (IC50) is 10 to 100 nM.

As for `CC(O)c1cn(Cc2cccc(Cl)c2)c(=O)c2c(O)c(=O)ccn12` (stereo not shown) [Example 103, 2-(3-chlorobenzyl)-9-hydroxy-4-(1-hydroxyethyl)-2H-pyrido[1,2-a]pyrazine-1,8-dione], the IC50 lay in the range of 10 to 100 nM.
